These molecules were tested against EML4-ALK G1202R transformed Ba/F3 cells (Homo sapiens, UniProt Q9HC35+Q9UM73, G1202R). Settings: 1 µM, result in words.
Sequence of EML4-ALK G1202R transformed Ba/F3 cells (Q9UM73 1058-1620 G1202R limits assumed, one chain of several): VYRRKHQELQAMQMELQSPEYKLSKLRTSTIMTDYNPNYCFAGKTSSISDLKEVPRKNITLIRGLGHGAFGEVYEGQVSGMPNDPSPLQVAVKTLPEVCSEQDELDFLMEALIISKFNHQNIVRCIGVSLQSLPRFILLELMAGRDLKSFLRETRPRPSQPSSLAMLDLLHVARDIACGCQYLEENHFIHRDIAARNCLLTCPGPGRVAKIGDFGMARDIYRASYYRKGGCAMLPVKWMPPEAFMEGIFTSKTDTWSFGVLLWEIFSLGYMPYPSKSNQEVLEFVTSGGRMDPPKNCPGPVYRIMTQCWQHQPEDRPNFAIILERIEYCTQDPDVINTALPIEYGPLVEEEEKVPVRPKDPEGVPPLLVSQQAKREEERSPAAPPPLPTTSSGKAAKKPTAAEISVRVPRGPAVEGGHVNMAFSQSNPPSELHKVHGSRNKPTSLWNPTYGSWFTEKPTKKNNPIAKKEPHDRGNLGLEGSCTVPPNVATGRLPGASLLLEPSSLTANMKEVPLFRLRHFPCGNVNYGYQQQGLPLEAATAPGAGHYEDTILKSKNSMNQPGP
For `CCc1cc2c(cc1-c1cnn(C)c1)C(C)(C)c1[nH]c3cc(C#N)ccc3c1C2=O` [Compound 7, 9-ethyl-6,6-dimethyl-8-(1-methyl-1H-pyrazol-4-yl)-11-oxo-6,11-dihydro-5H-benzo[b]carbazole-3-carbonitrile], the “single point inhibition of the G1202R mutant” value (“single point inhibition” for short) was “quite potent”.
`CCc1cc2c(cc1-c1cccs1)C(C)(C)c1[nH]c3cc(C#N)ccc3c1C2=O` [Compound 12, 9-ethyl-6,6-dimethyl-11-oxo-8-(thiophen-2-yl)-6,11-dihydro-5H-benzo[b]carbazole-3-carbonitrile] was tested, and the “single point inhibition” value was “much less inhibitory activity”.
With `CCc1cc2c(cc1[C@H](O)CO)C(C)(C)c1[nH]c3cc(C#N)ccc3c1C2=O` [Compound 23, (S)-8-(1,2-dihydroxyethyl)-9-ethyl-6,6-dimethyl-11-oxo-6,11-dihydro-5H-benzo[b]carbazole-3-carbonitrile] the “single point inhibition” value was “much less potent”.
With `CCc1cc2c(cc1-c1ccoc1)C(C)(C)c1[nH]c3cc(C#N)ccc3c1C2=O` [Compound 11, 9-ethyl-8-(furan-3-yl)-6,6-dimethyl-11-oxo-6,11-dihydro-5H-benzo[b]carbazole-3-carbonitrile] the “single point inhibition” value was “much less inhibitory activity”.
In the case of `CCc1cc2c(cc1-c1cnn(C(=O)N(C)C)c1)C(C)(C)c1[nH]c3cc(C#N)ccc3c1C2=O` [Compound 36, 4-(3-cyano-9-ethyl-6,6-dimethyl-11-oxo-6,11-dihydro-5H-benzo[b]carbazol-8-yl)-N,N-dimethyl-1H-pyrazole-1-carboxamide], the “single point inhibition” value is reported as “quite potent”.
With `CCc1cc2c(cc1-c1cn[nH]c1)C(C)(C)c1[nH]c3cc(C#N)ccc3c1C2=O` [Compound 8, 9-ethyl-6,6-dimethyl-11-oxo-8-(1H-pyrazol-4-yl)-6,11-dihydro-5H-benzo[b]carbazole-3-carbonitrile] the “single point inhibition” value was “quite potent”.
In the case of `CCc1cc2c(cc1/C=C/CN1CCOCC1)C(C)(C)c1[nH]c3cc(C#N)ccc3c1C2=O` [Compound 25, (E)-9-ethyl-6,6-dimethyl-8-(3-morpholinoprop-1-en-1-yl)-11-oxo-6,11-dihydro-5H-benzo[b]carbazole-3-carbonitrile], the “single point inhibition” value is reported as “no activity”.
`CCc1cc2c(cc1N1CCN(C)CC1)C(C)(C)c1[nH]c3cc(C#N)ccc3c1C2=O` [Compound 19, 9-ethyl-6,6-dimethyl-8-(4-methylpiperazin-1-yl)-11-oxo-6,11-dihydro-5H-benzo[b]carbazole-3-carbonitrile] was tested, and the “single point inhibition” value was “potent inhibition”.
With `CCc1cc2c(cc1C(=O)O)C(C)(C)c1[nH]c3cc(C#N)ccc3c1C2=O` [Compound 24, 3-cyano-9-ethyl-6,6-dimethyl-11-oxo-6,11-dihydro-5H-benzo[b]carbazole-8-carboxylic acid] the “single point inhibition” value was “much less potent”.
With `CCc1cc2c(cc1C#N)C(C)(C)c1[nH]c3cc(C#N)ccc3c1C2=O` [Compound 21, 9-ethyl-6,6-dimethyl-11-oxo-6,11-dihydro-5H-benzo[b]carbazole-3,8-dicarbonitrile] the “single point inhibition” value was “much less potent”.
In the case of `CCc1cc2c(cc1N1CCC(N(C)C)CC1)C(C)(C)c1[nH]c3cc(C#N)ccc3c1C2=O` [Compound 17, 8-(4-(dimethylamino)piperidin-1-yl)-9-ethyl-6,6-dimethyl-11-oxo-6,11-dihydro-5H-benzo[b]carbazole-3-carbonitrile], the “single point inhibition” value is reported as “potent inhibition”.
In the case of `CCc1cc2c(cc1-c1cc[nH]n1)C(C)(C)c1[nH]c3cc(C#N)ccc3c1C2=O` [Compound 9, 9-ethyl-6,6-dimethyl-11-oxo-8-(1H-pyrazol-3-yl)-6,11-dihydro-5H-benzo[b]carbazole-3-carbonitrile], the “single point inhibition” value is reported as “quite potent”.
In the case of `CCc1cc2c(cc1-c1cnn(C(C)(C)C(=O)N(C)C)c1)C(C)(C)c1[nH]c3cc(C#N)ccc3c1C2=O` [Compound 35, 2-(4-(3-cyano-9-ethyl-6,6-dimethyl-11-oxo-6,11-dihydro-5H-benzo[b]carbazol-8-yl)-1H-pyrazol-1-yl)-N,N,2-trime-thylpropanamide], the “single point inhibition” value is reported as “quite potent”.
`CCc1cc2c(cc1[C@@H](O)CO)C(C)(C)c1[nH]c3cc(C#N)ccc3c1C2=O` [Compound 22, (R)-8-(1,2-dihydroxyethyl)-9-ethyl-6,6-dimethyl-11-oxo-6,11-dihydro-5H-benzo[b]carbazole-3-carbonitrile] was tested, and the “single point inhibition” value was “much less potent”.

What follows are molecules tested on panel of 456 kinases. Settings: 1 µM.
For `CCc1cc2c(cc1-c1cnn(CCCN(C)C)c1)C(C)(C)c1[nH]c3cc(C#N)ccc3c1C2=O` [Compound 32, 8-(1-(3-(dimethylamino)propyl)-1H-pyrazol-4-yl)-9-ethyl-6,6-dimethyl-11-oxo-6,11-dihydro-5H-benzo[b]carbazole-3-carbonitrile], the KINOMEscan interactions mapped was 39.

From publication PMC4907642 (Journal of medicinal chemistry, 2015)
